Laboratory results reported in ChEMBL document CHEMBL5512674, “Novel Acyl Thiourea-Based Hydrophobic Tagging Degraders Exert Potent Anti-Influenza Activity through Two Distinct Endonuclease Polymerase Acidic-Targeted Degradation Pathways” (J Med Chem, 2024).
pEC50, pKd: −log10 of the molar value. Calls of active or inactive are those of the source. The rule behind the calls is not given here.

Tests used:
[1] = Hepatic clearance in dog liver microsomes preincubated for 5 mins followed by NADPH addition and measured for 45 mins by LC-MS analysis; type: ADME, Canis lupus familiaris, Microsome; details: time 50 min
[2] = system: Influenza A virus; assay: Anti-influenza activity against Influenza A virus A/WSN/33(H1N1) infected in MDCK cells assessed as downregulation of nucleoprotein expression at 1.56 to 100 nM incubated for 24 hrs by Western blotting analysis; type: functional, organism-based; details: dose 1.56-100 nM
[3] = system: Influenza A virus; assay: Anti-influenza activity against Influenza A virus A/PR/8/34 (H1N1) infected in MDCK cells assessed as reduction in virus-induced cytopathic effect incubated for 48 hrs by CCK-8 assay; type: functional, organism-based
[4] = Intrinsic clearance in human liver microsomes preincubated for 5 mins followed by NADPH addition and measured for 45 mins by LC-MS analysis; type: ADME, Microsome; details: time 50 min, read-out: CLH
[5] = Cytotoxicity against human HEK293T cells assessed as reduction in cell viability incubated for 48 hrs by CCK-8 assay; type: toxicity, cell-based, HEK-293T
[6] = molecular target: von Hippel-Lindau disease tumor suppressor/Polymerase acidic protein (Influenza A virus (A/Puerto Rico/8/1934(H1N1))) (UniProt P03433+P40337); assay: PROTAC activity at Influenza A virus A/WSN/33(H1N1) flag tagged Polymerase acidic protein/VHL (unknown origin) expressed in HEK293T cells assessed as degradation of PA expression at 0.02 to 10 uM incubated for 24 hrs by Western blotting analysis; type: cell-based; details: dose 0.02-10 µM
[7] = system: Influenza A virus; assay: Anti-influenza activity against Influenza A virus H3N2 infected in HEK293T cells assessed as reduction in virus-induced cytopathic effect incubated for 48 hrs by CCK-8 assay; type: functional, organism-based; details: H3N2, HEK-293T
[8] = Intrinsic clearance in dog liver microsomes preincubated for 5 mins followed by NADPH addition and measured for 45 mins by LC-MS analysis; type: ADME, Canis lupus familiaris, Microsome; details: time 50 min, read-out: CLH
[9] = Stability in human plasma assessed as compound remaining measured after 5 mins by LC-MS/MS analysis; type: ADME, cell-free; details: read-out: Stability
[10] = Half life in human liver microsomes preincubated for 5 mins followed by NADPH addition and measured for 45 mins by LC-MS analysis; type: ADME, Microsome; details: time 50 min
[11] = Stability in human plasma assessed as compound remaining measured after 120 mins by LC-MS/MS analysis; type: ADME, cell-free; details: read-out: Stability
[12] = Stability in human plasma assessed as compound remaining measured after 60 mins by LC-MS/MS analysis; type: ADME, cell-free; details: read-out: Stability
[13] = system: Influenza B virus; assay: Anti-influenza activity against Influenza B virus Yamagata/16/88 infected in HEK293T cells assessed as reduction in virus-induced cytopathic effect incubated for 48 hrs by CCK-8 assay; type: functional, organism-based; details: Yamagata/16/88, HEK-293T
[14] = Hepatic extraction ratio in human liver microsomes preincubated for 5 mins followed by NADPH addition and measured for 45 mins by LC-MS analysis; type: ADME, Microsome; details: time 50 min, read-out: ERH
[15] = system: Influenza B virus; assay: Anti-influenza activity against Influenza B virus Victoria/2/87 infected in HEK293T cells assessed as reduction in virus-induced cytopathic effect incubated for 48 hrs by CCK-8 assay; type: functional, organism-based; details: Victoria/2/87, HEK-293T
[16] = Cytotoxicity against dog MDCK cells assessed as reduction in cell viability incubated for 48 hrs by CCK-8 assay; type: toxicity, cell-based, Canis lupus familiaris
[17] = Selectivity index, ratio of CC50 for cytotoxicity against human HEK293T cells to EC50 for anti-influenza activity against Influenza A virus A/WSN/33(H1N1) infected in HEK293T cells assessed as reduction in virus-induced cytopathic effect; type: toxicity, cell-based; details: read-out: Ratio CC50/EC50
[18] = Hepatic extraction ratio in dog liver microsomes preincubated for 5 mins followed by NADPH addition and measured for 45 mins by LC-MS analysis; type: ADME, Canis lupus familiaris, Microsome; details: time 50 min, read-out: ERH
[19] = Half life in dog liver microsomes preincubated for 5 mins followed by NADPH addition and measured for 45 mins by LC-MS analysis; type: ADME, Canis lupus familiaris, Microsome; details: time 50 min
[20] = Stability in human plasma assessed as compound remaining measured after 30 mins by LC-MS/MS analysis; type: ADME, cell-free; details: read-out: Stability
[21] = Intrinsic clearance in mouse liver microsomes preincubated for 5 mins followed by NADPH addition and measured for 45 mins by LC-MS analysis; type: ADME, Microsome; details: time 50 min, read-out: CLH
[22] = Hepatic clearance in mouse liver microsomes preincubated for 5 mins followed by NADPH addition and measured for 45 mins by LC-MS analysis; type: ADME, Microsome; details: time 50 min
[23] = system: Influenza A virus; assay: Anti-influenza activity against Influenza A virus A/PR/8/34 (H1N1) infected in MDCK cells assessed as inhibition of viral growth at 1.6 nM incubated for 48 hrs by luciferase assay relative to control; type: functional
[24] = Hepatic extraction ratio in mouse liver microsomes preincubated for 5 mins followed by NADPH addition and measured for 45 mins by LC-MS analysis; type: ADME, Microsome; details: time 50 min, read-out: ERH
[25] = system: Influenza A virus; assay: Anti-influenza activity against Influenza A virus A/WSN/33(H1N1) infected in HEK293T cells assessed as reduction in virus-induced cytopathic effect incubated for 48 hrs by CCK-8 assay; type: functional, organism-based; details: HEK-293T
[26] = Stability in human plasma assessed as compound remaining by LC-MS/MS analysis; type: ADME, cell-free
[27] = Hepatic clearance in human liver microsomes preincubated for 5 mins followed by NADPH addition and measured for 45 mins by LC-MS analysis; type: ADME, Microsome; details: time 50 min
[28] = Stability in human plasma assessed as compound remaining measured after 15 mins by LC-MS/MS analysis; type: ADME, cell-free; details: read-out: Stability
[29] = Binding affinity to Influenza A virus A/WSN/33(H1N1) flag tagged Polymerase acidic protein assessed as dissociation constant incubated for 48 hrs by microscale thermophoresis assay; details: hek293t
[30] = Half life in mouse liver microsomes preincubated for 5 mins followed by NADPH addition and measured for 45 mins by LC-MS analysis; type: ADME, Microsome; details: time 50 min
[31] = molecular target: T1, Protein cereblon/Androgen receptor (Homo sapiens) (UniProt P10275+Q96SW2); assay: PROTAC activity at Influenza A virus A/WSN/33(H1N1) flag tagged Polymerase acidic protein/CRBN (unknown origin) expressed in HEK293T cells assessed as degradation of PA expression at 5 uM incubated for 24 hrs by Western blotting analysis; type: cell-based
[32] = molecular target: T1, Protein cereblon/Androgen receptor (Homo sapiens); assay: PROTAC activity at Influenza A virus A/WSN/33(H1N1) flag tagged Polymerase acidic protein/CRBN (unknown origin) expressed in HEK293T cells assessed as degradation of PA expression at 10 uM incubated for 16 hrs by Western blotting analysis; type: cell-based
[33] = system: Influenza A virus; assay: Anti-influenza activity against Influenza A virus A/PR/8/34 (H1N1) infected in MDCK cells assessed as inhibition of viral growth at 100 uM incubated for 48 hrs by luciferase assay relative to control; type: functional

T1 sequence (P10275 whole entry, looked up): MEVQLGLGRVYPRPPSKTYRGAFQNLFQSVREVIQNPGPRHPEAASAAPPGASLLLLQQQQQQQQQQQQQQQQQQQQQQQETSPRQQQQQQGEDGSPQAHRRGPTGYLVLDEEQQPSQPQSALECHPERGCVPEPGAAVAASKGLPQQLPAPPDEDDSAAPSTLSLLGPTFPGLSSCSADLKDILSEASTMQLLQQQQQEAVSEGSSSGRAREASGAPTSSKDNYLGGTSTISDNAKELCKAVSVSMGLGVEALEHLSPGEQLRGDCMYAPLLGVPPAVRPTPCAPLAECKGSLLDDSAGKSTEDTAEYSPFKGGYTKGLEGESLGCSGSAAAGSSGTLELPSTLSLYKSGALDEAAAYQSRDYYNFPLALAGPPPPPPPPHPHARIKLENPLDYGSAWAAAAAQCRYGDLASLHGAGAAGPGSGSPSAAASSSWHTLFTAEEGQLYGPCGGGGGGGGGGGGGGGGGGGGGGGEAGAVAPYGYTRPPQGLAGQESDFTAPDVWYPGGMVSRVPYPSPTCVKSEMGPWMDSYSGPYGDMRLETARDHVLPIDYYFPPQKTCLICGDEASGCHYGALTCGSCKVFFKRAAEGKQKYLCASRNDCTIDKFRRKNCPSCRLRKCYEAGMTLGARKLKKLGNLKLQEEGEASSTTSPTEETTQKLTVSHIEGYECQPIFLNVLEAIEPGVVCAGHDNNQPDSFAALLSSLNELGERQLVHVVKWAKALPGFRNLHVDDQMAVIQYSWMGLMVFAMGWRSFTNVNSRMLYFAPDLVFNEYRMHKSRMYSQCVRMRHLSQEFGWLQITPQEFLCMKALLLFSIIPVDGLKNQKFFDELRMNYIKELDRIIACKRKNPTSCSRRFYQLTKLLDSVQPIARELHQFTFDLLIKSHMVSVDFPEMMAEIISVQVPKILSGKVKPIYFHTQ
T1 sequence (Q96SW2 whole entry, looked up): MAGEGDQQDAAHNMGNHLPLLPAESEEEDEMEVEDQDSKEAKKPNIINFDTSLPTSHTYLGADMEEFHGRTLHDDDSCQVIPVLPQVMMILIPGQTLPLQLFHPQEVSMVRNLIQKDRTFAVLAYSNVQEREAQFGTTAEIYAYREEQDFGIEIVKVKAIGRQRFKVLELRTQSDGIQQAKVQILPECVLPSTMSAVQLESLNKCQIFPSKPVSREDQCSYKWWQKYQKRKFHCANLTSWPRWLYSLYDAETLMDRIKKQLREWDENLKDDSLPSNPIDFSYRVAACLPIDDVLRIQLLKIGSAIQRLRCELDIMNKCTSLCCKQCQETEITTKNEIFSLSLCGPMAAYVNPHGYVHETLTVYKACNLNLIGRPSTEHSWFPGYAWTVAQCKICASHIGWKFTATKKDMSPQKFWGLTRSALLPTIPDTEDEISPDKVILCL

With `CC(C)(C)c1ccc(C(=O)NC(=S)Nc2ccc(N)cc2)cc1` the CLhep predicted [1] was 22 mL/min/kg, the Activity [2] was “Active” and the pEC50 [3] was 7.62. The CLint scaled [4] was 11.6 mL/min/kg, the CC50 at 48 h [5] was 72300 nM and the Activity [6] was “inactive”. It also gave a pEC50 [7] of less than 5.00, a CLint scaled [8] of 76.5 mL/min/kg and a remaining at 5 min [9] of 101%. The half-life [10] was 138 min, the remaining at 2 h [11] was 112% and the remaining at 1 h [12] was 113%. For the same compound, the pEC50 [13] was 6.82, the hepatic extraction ratio at 0.75 h [14] was 0.359 and the pEC50 [15] was 6.78. The CC50 at 48 h [16] was greater than 200000 nM, the selectivity ratio [17] was 218 and the hepatic extraction ratio at 0.75 h [18] was 0.712. The half-life [19] was 26.1 min, the remaining at 0.5 h [20] was 104% and the CLint scaled [21] was 249 mL/min/kg. For the same compound, the CLhep predicted [22] was 66.1 mL/min/kg, the inhibition at 0.0016 µM [23] was 18% and the hepatic extraction ratio at 0.75 h [24] was 0.735. It also gave a pEC50 [25] of 6.48, a Stability [26] of 100% and a CLhep predicted [27] of 7.43 mL/min/kg. For the same compound, the remaining at 0.25 h [28] was 102%, the pKd [29] was 3.31 and the half-life [30] was 21.9 min.
With `CC(C)(C)c1ccc(C(=O)NC(=S)Nc2ccc(NC(=O)CCCCCCCNc3cccc4c3CN(C3CCC(=O)NC3=O)C4=O)cc2)cc1` (configuration not stated) the Activity [31] was “Active”, the Activity [32] was “Active” and the pEC50 [25] was less than 5.00.
Work on `NC12CC3CC(CC(C3)C1)C2` [AMANTADINE] yielded a CC50 at 48 h [5] greater than 100000 nM, an inhibition at 100 µM [33] of 62.3% and a selectivity ratio [17] greater than 55.9. For the same compound, the pEC50 [25] was 5.75.
